Reference: patent US20250340574A1, “MODULATORS OF CYSTIC FIBROSIS TRANSMEMBRANE CONDUCTANCE REGULATOR” (Vertex Pharmaceuticals Incorporated, priority 2022, published 2025)
Where two headings read alike, the source gives them in different places.

How the values were obtained:
[1] = target: T1, CFTR (F508del/MF-HBE cells) (Homo sapiens, UniProt P13569, DEL508-508); experiment: Ussing chamber assay of CFTR-mediated short-circuit currents, Assay D (single concentration of 1 μM); format: cell-based; details: with 44 nM potentiator and 18 μM Tezacaftor, 18-24 hours, 20% human serum
T1 construct: human bronchial epithelial (HBE) cells derived from CF subjects heterozygous for F508del and a minimal function CFTR mutation (F508del/MF-HBE); endogenous in cells; host or cells: Primary human bronchial epithelial cells from CF subjects (F508del/MF genotype), differentiated at an air-liquid interface
T1 sequence (P13569 with tags, fused parts or gaps DEL508-508): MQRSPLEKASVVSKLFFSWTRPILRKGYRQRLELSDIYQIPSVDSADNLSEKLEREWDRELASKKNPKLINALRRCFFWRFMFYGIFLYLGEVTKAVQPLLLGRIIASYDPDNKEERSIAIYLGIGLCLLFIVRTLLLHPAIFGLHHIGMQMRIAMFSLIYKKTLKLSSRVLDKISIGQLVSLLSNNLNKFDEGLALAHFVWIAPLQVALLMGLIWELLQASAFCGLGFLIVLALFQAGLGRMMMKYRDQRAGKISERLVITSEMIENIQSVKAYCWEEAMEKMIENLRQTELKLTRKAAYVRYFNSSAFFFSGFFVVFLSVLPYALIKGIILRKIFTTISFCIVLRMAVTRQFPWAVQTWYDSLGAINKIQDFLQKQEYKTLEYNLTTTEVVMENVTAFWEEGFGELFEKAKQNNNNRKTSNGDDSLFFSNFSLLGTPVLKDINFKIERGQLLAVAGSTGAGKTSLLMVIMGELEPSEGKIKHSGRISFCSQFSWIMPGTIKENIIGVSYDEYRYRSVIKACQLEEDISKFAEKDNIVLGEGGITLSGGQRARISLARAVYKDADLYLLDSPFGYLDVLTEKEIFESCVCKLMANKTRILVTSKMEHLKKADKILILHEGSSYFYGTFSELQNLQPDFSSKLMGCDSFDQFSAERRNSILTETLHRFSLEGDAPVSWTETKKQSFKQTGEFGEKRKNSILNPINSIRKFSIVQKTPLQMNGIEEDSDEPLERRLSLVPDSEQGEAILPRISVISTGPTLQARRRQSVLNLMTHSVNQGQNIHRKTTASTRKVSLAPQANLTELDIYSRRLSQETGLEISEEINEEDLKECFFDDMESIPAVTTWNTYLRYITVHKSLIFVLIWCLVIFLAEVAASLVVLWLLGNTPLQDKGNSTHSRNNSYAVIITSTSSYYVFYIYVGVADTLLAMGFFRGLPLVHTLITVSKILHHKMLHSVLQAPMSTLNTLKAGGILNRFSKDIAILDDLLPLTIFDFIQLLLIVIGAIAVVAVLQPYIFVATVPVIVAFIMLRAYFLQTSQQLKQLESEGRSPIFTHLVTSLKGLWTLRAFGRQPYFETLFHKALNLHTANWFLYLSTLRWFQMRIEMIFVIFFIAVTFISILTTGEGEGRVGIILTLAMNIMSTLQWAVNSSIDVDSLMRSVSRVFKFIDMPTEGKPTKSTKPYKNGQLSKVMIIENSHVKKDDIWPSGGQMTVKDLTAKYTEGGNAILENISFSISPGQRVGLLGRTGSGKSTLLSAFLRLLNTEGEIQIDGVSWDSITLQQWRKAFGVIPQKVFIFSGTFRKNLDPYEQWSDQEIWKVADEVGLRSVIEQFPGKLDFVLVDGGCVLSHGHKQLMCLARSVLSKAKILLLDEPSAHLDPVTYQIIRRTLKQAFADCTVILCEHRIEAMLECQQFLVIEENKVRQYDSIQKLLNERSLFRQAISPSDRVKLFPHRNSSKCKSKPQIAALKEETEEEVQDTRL
Procedure, shortened: (§1)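 F508del/MF-HBE cells grown at air-liquid interface were incubated 18-24 h at 37 °C in 20% human serum with correctors plus 18 μM tezacaftor and a fixed partner compound (33 nM for concentration series, 44 nM at 1 μM). ISC was read at 0 mV after 20 μM forskolin, minus the post-inhibitor current.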

[2] = amide bond, 13-membered ring
[3] = target: T1, CFTR (F508del/MF-HBE cells); experiment: Ussing chamber assay of CFTR-mediated short-circuit currents, Assay C (0.026 μM to 25 μM, 6 concentrations); format: cell-based; details: with 33 nM potentiator and 18 μM Tezacaftor, 20% human serum
Procedure, shortened: as §1

[4] = from Cc1cccc(C)c1-c1cc(OC[C@@H](CC(C)(C)C)NCc2cn3ccc(Br)cc3n2)nc(NS(=O)(=O)c2cccc(C(=O)O)c2)n1; amide bond; 13-membered ring; CDMT/NMM; DMF; 28.2 mM; 3.08 h

SMILES: Cc1cccc(C)c1-c1cc2nc(n1)NS(=O)(=O)c1cccc(c1)C(=O)N(Cc1cnc3oc(Br)cc3n1)[C@H](CC1(C)CC1)CO2 [Compound I-254, (11R)-12-[(6-bromofuro[2,3-b]pyrazin-2-yl)methyl]-6-(2,6-dimethylphenyl)-11-[(1-methylcyclopropyl)methyl]-2,2-dioxo-9-oxa-2λ^6-thia-3,5,12,19-tetrazatricyclo[12.3.1.14,8]nonadeca-1(18),4(19),5,7,14,16-hexaen-13-one]
- D activity at 1 μM (%) [1]: ++ (++ is 30-60%)
- ring closure, isolated yield ([2]; from Cc1cccc(C)c1-c1cc(OC[C@@H](CC2(C)CC2)NCc2cnc3oc(Br)cc3n2)nc(NS(=O)(=O)c2cccc(C(=O)O)c2)n1, CDMT?, 16.0 h): 65%

SMILES: Cc1cccc(C)c1-c1cc2nc(n1)NS(=O)(=O)c1cccc(c1)C(=O)N(Cc1cnc3oc(C4CC4)cc3n1)C(C(C(C)C)C(C)C)CO2 (single isomer, unassigned) [Compound I-177, 12-[(6-cyclopropylfuro[2,3-b]pyrazin-2-yl)methyl]-6-(2,6-dimethylphenyl)-11-(1-isopropyl-2-methyl-propyl)-2,2-dioxo-9-oxa-2λ^6-thia-3,5,12,19-tetrazatricyclo[12.3.1.14,8]nonadeca-1(18),4(19),5,7,14,16-hexaen-13-one]
- D activity at 1 μM (%) [1]: +++ (+++ is >60%)
- Emax ([3]; 18-24 hours, read-out: C Max activity (%)): > 60%
- EC50 [3]: < 1000 nM
- ring closure, isolated yield ([2]; from Cc1cccc(C)c1-c1cc(OCC(NCc2cnc3oc(C4CC4)cc3n2)C(C(C)C)C(C)C)nc(NS(=O)(=O)c2cccc(C(=O)O)c2)n1, CDMT/NMM, DMF, 15.0 mM, 68.0 h): 31%

SMILES: Cc1cccc(C)c1-c1cc2nc(n1)NS(=O)(=O)c1cccc(c1)C(=O)N(Cc1cn3ccc(Br)cc3n1)[C@H](CC(C)(C)C)CO2
- ring closure, crude yield [4]: 90%
